Here are results for 19 molecules from US20200016136A1 (VIIV HEALTHCARE UK (NO. 5) LIMITED, priority 2017, published 2020).

The assay concerns NL-RLuc virus (recombinant NL4-3 HIV with Renilla Luciferase gene). As to the kind of experiment: Inhibition of HIV replication (NL-RLuc virus in MT-2 cells, luciferase readout). Type of assay: cell-based, Human immunodeficiency virus (HIV). The note with it: MT2, 120 h. The text has this: Inhibition of HIV Replication:
A recombinant NL-RLuc proviral clone was constructed in which a section of the nef gene form NL4-3 was replaced with the Renilla Luciferase gene. This virus is fully infectious and can undergo multiple cycles of replication in cell culture. In addition, the luciferous reporter provides a simple and easy method for quantitating the extent of virus growth and consequently, the antiviral activity of test compounds. The plasmid pNLRLuc contains the proviral NL-Rluc DNA cloned into pUC18 at the PvuII site. The NL-RLuc virus was prepared by transfection of 293T cells with the plasmid pNLRLuc. Transfections were performed using the LipofectAMINE PLUS kit form Invitrogen (Carlsbad, Calif.) according to the manufacturer and the virus generated was titered in MT-2 cells. For susceptibility analyses, the titrated virus was used to infect MT-2 cells in the presence of compound, and after 5 days of incubation, cells were processed and quantitated for virus growth by the amount of expressed luciferase. Assay media was RPMI 1640 supplemented with 10% heat inactivated fetal bovine serum (FBS), 100 units/ml penicillin G/100 units/ml streptomycin, 10 mM HEPES buffer pH 7.55 and 2 mM L-glutamine. The results form at least 2 experiments were used to calculate the EC50 values. Luciferase was quantitated using the Dual Luciferase kit form Promega (Madison, Wis.). Susceptibility of viruses to compounds was determined by incubation in the presence of serial dilutions of the compound. The 50% effective concentration (EC50) was calculated by using the exponential form of the median effect equation where (Fa)=1/[1+(ED50/drug conc.)^m](Johnson V A, Byington R T. Infectivity Assay. In Techniques in HIV Research. ed. Aldovini A, Walker B D. 71-76. New York: Stockton Press. 1990).
For the molecule `Cc1nc(C)c([C@H](OC(C)(C)C)C(=O)O)c(N2CCC(C)(C)CC2)c1-c1ccc2c(c1)CCN(c1nccc(N3CCC3)n1)C2` [Example 19, (2S)-2-(5-{2-[4-(Azetidin-1-yl)pyrimidin-2-yl]-1,2,3,4-tetrahydroisoquinolin-6-yl}-4-(4,4-dimethylpiperidin-1-yl)-2,6-dimethylpyridin-3-yl)-2-(tert-butoxy)acetic Acid], the EC50 (usually the midpoint of the concentration-response curve) was 1 nM.

For the molecule `Cc1nc(C)c([C@H](OC(C)(C)C)C(=O)O)c(N2CCC(C)(C)CC2)c1-c1ccc2c(c1)CCN(c1ccnc(N3CCCC3)n1)C2` [Example 20, (2S)-2-(tert-Butoxy)-2-[4-(4,4-dimethylpiperidin-1-yl)-2,6-dimethyl-5-{2-[2-(pyrrolidin-1-yl)pyrimidin-4-yl]-1,2,3,4-tetrahydroisoquinolin-6-yl}pyridin-3-yl]acetic Acid], the EC50 is 2 nM.

As for `Cc1nc(C)c([C@H](OC(C)(C)C)C(=O)O)c(N2CCC(C)(C)CC2)c1-c1ccc2c(c1)CCN(c1nccc(N3CCCC3)n1)C2` [Example 21, (2S)-2-(tert-Butoxy)-2-[4-(4,4-dimethylpiperidin-1-yl)-2,6-dimethyl-5-{2-[4-(pyrrolidin-1-yl)pyrimidin-2-yl]-1,2,3,4-tetrahydroisoquinolin-6-yl}pyridin-3-yl]acetic Acid], the EC50 worked out at 2 nM.

For the molecule `Cc1nc(C)c([C@H](OC(C)(C)C)C(=O)O)c(N2CCC(C)(C)CC2)c1-c1ccc2c(c1)CCN(c1ccnc(N3CCCCC3)n1)C2` [Example 22, (2S)-2-(tert-Butoxy)-2-[4-(4,4-dimethylpiperidin-1-yl)-2,6-dimethyl-5-{2-[2-(piperidin-1-yl)pyrimidin-4-yl]-1,2,3,4-tetrahydroisoquinolin-6-yl}pyridin-3-yl]acetic Acid], the EC50 turned out to be 3 nM.

Take `Cc1nc(C)c([C@H](OC(C)(C)C)C(=O)O)c(N2CCC(C)(C)CC2)c1-c1ccc2c(c1)CCN(c1nccc(N3CCCCC3)n1)C2` [Example 23, (2S)-2-(tert-Butoxy)-2-[4-(4,4-dimethylpiperidin-1-yl)-2,6-dimethyl-5-{2-[4-(piperidin-1-yl)pyrimidin-2-yl]-1,2,3,4-tetrahydroisoquinolin-6-yl}pyridin-3-yl]acetic Acid]: the EC50 came out at 3 nM.

`Cc1nc(C)c([C@H](OC(C)(C)C)C(=O)O)c(N2CCC(C)(C)CC2)c1-c1ccc2c(c1)CCN(c1nccc(N3CCC(C)(C)CC3)n1)C2` [Example 24, (2S)-2-(tert-Butoxy)-2-[4-(4,4-dimethylpiperidin-1-yl)-5-{2-[4-(4,4-dimethylpiperidin-1-yl)pyrimidin-2-yl}-1,2,3,4-tetrahydroisoquinolin-6-yl}-2,6-dimethylpyridin-3-yl]acetic Acid]: the EC50 turned out to be 8 nM.

Regarding `Cc1nc(C)c([C@H](OC(C)(C)C)C(=O)O)c(N2CCC(C)(C)CC2)c1-c1ccc2c(c1)CCN(c1nccc(N3CCC4(CCC4)CC3)n1)C2` [Example 25, (2S)-2-{5-[2-(4-{7-Azaspiro[3.5]nonan-7-yl}pyrimidin-2-yl)-1,2,3,4-tetrahydroisoquinolin-6-yl]-4-(4,4-dimethylpiperidin-1-yl)-2,6-dimethylpyridin-3-yl}-2-(tert-butoxy)acetic Acid], the EC50 was found to be 5 nM.

In the case of `Cc1ncc(-c2ccc3c(c2)CCN(c2nccc(N4CCOCC4)n2)C3)c(N2CCC(C)(C)CC2)c1[C@H](OC(C)(C)C)C(=O)O` [Example 26, (2S)-2-(tert-Butoxy)-2-[4-(4,4-dimethylpiperidin-1-yl)-2-methyl-5-{2-[4-(morpholin-4-yl)pyrimidin-2-yl]-1,2,3,4-tetrahydroisoquinolin-6-yl}pyridin-3-yl]acetic Acid], the concentration giving a half-maximal response (EC50) worked out at 0.8 nM.

As for `Cc1nc(C)c([C@H](OC(C)(C)C)C(=O)O)c(N2CCC(C)(C)CC2)c1-c1ccc2c(c1)CCN(c1ccnc(N3C[C@@H](C)O[C@@H](C)C3)n1)C2` [Example 27, (2S)-2-(tert-Butoxy)-2-[5-(2-{2-[(2R,6S)-2,6-dimethylmorpholin-4-yl]pyrimidin-4-yl}-1,2,3,4-tetrahydroisoquinolin-6-yl)-4-(4,4-dimethylpiperidin-1-yl)-2,6-dimethylpyridin-3-yl]acetic Acid], the EC50 was 2 nM.

On to `Cc1nc(C)c([C@H](OC(C)(C)C)C(=O)O)c(N2CCC(C)(C)CC2)c1-c1ccc2c(c1)CCN(c1nccc(N3C[C@@H](C)O[C@@H](C)C3)n1)C2` [Example 28, (2S)-2-(tert-Butoxy)-2-[5-(2-{4-[(2R,6S)-2,6-dimethylmorpholin-4-yl]pyrimidin-2-yl}-1,2,3,4-tetrahydroisoquinolin-6-yl)-4-(4,4-dimethylpiperidin-1-yl)-2,6-dimethylpyridin-3-yl]acetic Acid], for which the EC50 was found to be 2 nM.

For the molecule `Cc1nc(C)c([C@H](OC(C)(C)C)C(=O)O)c(N2CCC(C)(C)CC2)c1-c1ccc2c(c1)CCN(c1ccnc(N3CC4CCC(C3)O4)n1)C2` [Example 29, (2S)-2-(tert-Butoxy)-2-[4-(4,4-dimethylpiperidin-1-yl)-2,6-dimethyl-5-[2-(2-{8-oxa-3-azabicyclo[3.2.1]octan-3-yl}pyrimidin-4-yl)-1,2,3,4-tetrahydroisoquinolin-6-yl]pyridin-3-yl]acetic Acid], the EC50 came out at 4 nM.

With `Cc1nc(C)c([C@H](OC(C)(C)C)C(=O)O)c(N2CCC(C)(C)CC2)c1-c1ccc2c(c1)CCN(c1nccc(N3CC4CCC(C3)O4)n1)C2` [Example 30, (2S)-2-(tert-Butoxy)-2-[4-(4,4-dimethylpiperidin-1-yl)-2,6-dimethyl-5-[2-(4-{8-oxa-3-azabicyclo[3.2.1]octan-3-yl}pyrimidin-2-yl)-1,2,3,4-tetrahydroisoquinolin-6-yl]pyridin-3-yl]acetic Acid], the EC50 amounted to 1 nM.

`Cc1nc(C)c([C@H](OC(C)(C)C)C(=O)O)c(N2CCC(C)(C)CC2)c1-c1ccc2c(c1)CCN(c1ccnc(N3C4CCC3COC4)n1)C2` [Example 31, (2S)-2-(tert-Butoxy)-2-[4-(4,4-dimethylpiperidin-1-yl)-2,6-dimethyl-5-[2-(2-{3-oxa-8-azabicyclo[3.2.1]octan-8-yl}pyrimidin-4-yl)-1,2,3,4-tetrahydroisoquinolin-6-yl]pyridin-3-yl]acetic Acid]: the EC50 was 2 nM.

Consider `Cc1nc(C)c([C@H](OC(C)(C)C)C(=O)O)c(N2CCC(C)(C)CC2)c1-c1ccc2c(c1)CCN(c1nccc(N3C4CCC3COC4)n1)C2` [Example 32, (2S)-2-(tert-Butoxy)-2-[4-(4,4-dimethylpiperidin-1-yl)-2,6-dimethyl-5-[2-(4-{3-oxa-8-azabicyclo[3.2.1]octan-8-yl}pyrimidin-2-yl)-1,2,3,4-tetrahydroisoquinolin-6-yl]pyridin-3-yl]acetic Acid], for which the EC50 turned out to be 1 nM.

Take `Cc1nc(C)c([C@H](OC(C)(C)C)C(=O)O)c(N2CCC(C)(C)CC2)c1-c1ccc2c(c1)CCN(c1nccc(N3C4COCC3COC4)n1)C2` [Example 33, (2S)-2-(tert-Butoxy)-2-[4-(4,4-dimethylpiperidin-1-yl)-5-[2-(4-{3,7-dioxa-9-azabicyclo[3.3.1]nonan-9-yl}pyrimidin-2-yl)-1,2,3,4-tetrahydroisoquinolin-6-yl]-2,6-dimethylpyridin-3-yl]acetic Acid]: the EC50 is 5 nM.

In the case of `Cc1nc(C)c([C@H](OC(C)(C)C)C(=O)O)c(N2CCC(C)(C)CC2)c1-c1ccc2c(c1)CCN(c1ccnc(N3C4COCC3COC4)n1)C2` [Example 34, (2S)-2-(tert-Butoxy)-2-[4-(4,4-dimethylpiperidin-1-yl)-5-[2-(2-{3,7-dioxa-9-azabicyclo[3.3.1]nonan-9-yl}pyrimidin-4-yl)-1,2,3,4-tetrahydroisoquinolin-6-yl]-2,6-dimethylpyridin-3-yl]acetic Acid], the EC50 was determined as 5 nM.

Turning to `Cc1nc(C)c([C@H](OC(C)(C)C)C(=O)O)c(N2CCC(C)(C)CC2)c1-c1ccc2c(c1)CCN(c1nccc(N3C4CCCC3COC4)n1)C2` [Example 35, (2S)-2-(tert-Butoxy)-2-[4-(4,4-dimethylpiperidin-1-yl)-2,6-dimethyl-5-[2-(4-{3-oxa-9-azabicyclo[3.3.1]nonan-9-yl}pyrimidin-2-yl)-1,2,3,4-tetrahydroisoquinolin-6-yl]pyridin-3-yl]acetic Acid], the EC50 worked out at 3 nM.

In the case of `Cc1nc(C)c([C@H](OC(C)(C)C)C(=O)O)c(N2CCC(C)(C)CC2)c1-c1ccc2c(c1)CCN(c1ccnc(N3C4CCCC3COC4)n1)C2` [Example 36, (2S)-2-(tert-Butoxy)-2-[4-(4,4-dimethylpiperidin-1-yl)-2,6-dimethyl-5-[2-(2-{3-oxa-9-azabicyclo[3.3.1]nonan-9-yl}pyrimidin-4-yl)-1,2,3,4-tetrahydroisoquinolin-6-yl]pyridin-3-yl]acetic Acid], the EC50 was determined as 3 nM.

On to `Cc1cc(N2CCOCC2)nc(N2CCc3cc(-c4c(C)nc(C)c([C@H](OC(C)(C)C)C(=O)O)c4N4CCC(C)(C)CC4)ccc3C2)n1` [Example 37, (2S)-2-(tert-Butoxy)-2-[4-(4,4-dimethylpiperidin-1-yl)-2,6-dimethyl-5-{2-[4-methyl-6-(morpholin-4-yl)pyrimidin-2-yl]-1,2,3,4-tetrahydroisoquinolin-6-yl}pyridin-3-yl]acetic Acid], for which the EC50 was found to be 1 nM.
